Assay results taken from patent US7157083B2, “Compositions and methods for treating retroviral infections” (priority 1998, dated 2007).

Test system: clinical isolate ROJO (low passage HIV-1) in human PBMCs
Test: Study 1 PBMC assay: reverse transcriptase activity after ROJO infection (Treatments A, B, C)
Assay type: cell-based
Method: Percent virus control (% VC) in the following tables is the mean RT activity (cpm) as a percentage of a virus control. Percent cell control (% CC) is the mean XTT absorbance as a percentage of a cell control.
Peripheral blood monocular cells (PBMCs) are obtained from normal hepatitis and HIV-1 negative donors by ficoll hypaque gradient separation. Briefly, anti-coagulated blood is diluted 1:1 with Dulbecco's phosphate buffered saline without Ca^++ and Mg^++ (PBS) and layered over 14 mL of Lymphocyte separation media in a 50 ml centrifuge tube. Tubes are then centrifuged for 30 minutes at 600× g. Banded PBLs are gently aspirated from the resulting interface and subsequently washed 2× with PBS by low speed centrifugation. The mononuclear cells are counted, viability determined by Trypan Blue dye exclusion and resuspended in RPM1640 medium supplemented with 15% FBS (heat inactivated), 2 mM L-glutamine, 100 U/mL penicillin, 100 μg/mL streptomycin, and 10 μg/mL gentamycin with 2 μg/mL phytohemagluttin (PHA) at 1×10^6 cells/mL. The cells are cultured for 48 to 72 h at 37° C., 5% CO2 Following incubation, cells are collected by centrifugation, washed and resuspended in RPMI 1640 supplemented with 15% FBS (heat inactivated), 2 Mm L-glutamine, 100 U/mL penicillin, 100 μg/mL streptomycin, and 10 μg/mL gentamycin with 20 U/mL recombinant IL-2 (R & D Systems, Minneapolis, Minn.). IL-2 is included in the culture medium to maintain the cell division initiated by the PHA mitogenic stimulation. The cultures are then maintained until use by ½ culture volume change with fresh IL-2 containing medium every 3 days.
Human peripheral blood mononuclear cells from a minimum of 2 donors, that have been blasted with PHA and IL-2, are counted, viability determined by Trypan Blue dye exclusion and mixed in equal ratios. Pooled donors are used to minimize the variability observed between individual donors which results from quantitative and qualitative differences in HIV infection and overall response to the PHA and IL-2 of primary lymphocyte populations. The cells are resuspended at 1×10^6 cells/mL in RPMI 1640 without phenol red supplemented with 15% Fetal Bovine Serum (heat inactivated), 2 mM L-glutamine, 100 U/mL penicillin, 100 μg/mL streptomycin, 10 μg/mL gentamycin and IL-2 (20 U/mL, R&D Systems, Minneapolis, Minn.). Fifty microliters of cells are then distributed to the inner 60 wells of a 96 well round bottom Microtiter culture plate in a standard format developed by the Infectious Disease Research department of Southern Research Institute. Each plate contains cell control wells (cells only), virus control wells (cell plus virus), and experimental wells (drug plus cells plus virus).
Using an in-house computer program, IC50 (50% inhibition of virus replication), TC50 (50% reduction in cell viability) and a therapeutic index (TI, […]) were determined. AZT was used as a relevant positive control compound for the individual assays.
This study compares the ability of hyaluronidase to AZT to lower viral replication as measured by reverse transcriptase levels. RT was measured on days 7, 14, and 21. Three different treatment regimens were used in the comparative study (Treatments A, B and C).
Treatment A. Normal mixed PHA blasted human PBMCs (5×10e4/well) were pretreated with drug every 48 hours for 3 doses. On day 6 of pretreatment, cells were infected with clinical isolate ROJO. 48 hours post infection, treatment with drugs continued for an additional 3 treatments. Samples for assay were collected on D7 (day 7), 14, 21, post infection, frozen and later analyzed for reverse transcriptase.
Treatment B. Normal mixed PHA blasted human PBMCs (as above) were plated in 96 wells and allowed to incubate for 48 hours (cells were set at same time as treatment A from same pool). Drug pretreatment started on day 2 and was repeated on day 4. On day 6, cell were infected as in treatment A, with concurrent addition of drug for a total of 3 treatments. […]

Cc1cn([C@H]2C[C@H](N=[N+]=[N-])[C@@H](CO)O2)c(=O)[nH]c1=O [AZT, reference compound]
RT activity % VC (Treatment A, 0.00017 μM, Day 7): 47.3% | RT activity % VC (Treatment A, 0.00017 μM, Day 14): 115.4% | RT activity % VC (Treatment A, 0.00017 μM, Day 21): 164.5% | RT activity % VC (Treatment A, 0.00054 μM, Day 7): 19.3% | RT activity % VC (Treatment A, 0.00054 μM, Day 14): 99.8% | RT activity % VC (Treatment A, 0.00054 μM, Day 21): 141.5% | RT activity % VC (Treatment A, 0.00168 μM, Day 7): 25.1% | RT activity % VC (Treatment A, 0.00168 μM, Day 14): 74.2% | RT activity % VC (Treatment A, 0.00168 μM, Day 21): 135.6% | RT activity % VC (Treatment A, 0.00524 μM, Day 7): 10.2% | RT activity % VC (Treatment A, 0.00524 μM, Day 14): 78.3% | RT activity % VC (Treatment A, 0.00524 μM, Day 21): 155.1% | RT activity % VC (Treatment A, 0.01638 μM, Day 7): 11.6% | RT activity % VC (Treatment A, 0.01638 μM, Day 14): 57.9% | RT activity % VC (Treatment A, 0.01638 μM, Day 21): 129.5% | RT activity % VC (Treatment A, 0.0512 μM, Day 7): 3.0% | RT activity % VC (Treatment A, 0.0512 μM, Day 14): 40.7% | RT activity % VC (Treatment A, 0.0512 μM, Day 21): 134.8% | RT activity % VC (Treatment A, 0.16 μM, Day 7): 2.7% | RT activity % VC (Treatment A, 0.16 μM, Day 14): 40.3% | RT activity % VC (Treatment A, 0.16 μM, Day 21): 126.3% | RT activity % VC (Treatment A, 0.5 μM, Day 7): 2.3% | RT activity % VC (Treatment A, 0.5 μM, Day 14): 21.4% | RT activity % VC (Treatment A, 0.5 μM, Day 21): 78.3% | RT activity % VC (Treatment A, 5.5E-05 μM, Day 7): 77.0% | RT activity % VC (Treatment A, 5.5E-05 μM, Day 14): 100.4% | RT activity % VC (Treatment A, 5.5E-05 μM, Day 21): 159.7% | RT activity % VC (Treatment B, 0.00017 μM, Day 7): 43.6% | RT activity % VC (Treatment B, 0.00017 μM, Day 14): 80.8% | RT activity % VC (Treatment B, 0.00017 μM, Day 21): 129.8% | RT activity % VC (Treatment B, 0.00054 μM, Day 7): 34.2% | RT activity % VC (Treatment B, 0.00054 μM, Day 14): 70.1% | RT activity % VC (Treatment B, 0.00054 μM, Day 21): 111.8% | RT activity % VC (Treatment B, 0.00168 μM, Day 7): 10.7% | RT activity % VC (Treatment B, 0.00168 μM, Day 14): 57.5% | RT activity % VC (Treatment B, 0.00168 μM, Day 21): 153.5% | RT activity % VC (Treatment B, 0.00524 μM, Day 7): 9.3% | RT activity % VC (Treatment B, 0.00524 μM, Day 14): 51.0% | RT activity % VC (Treatment B, 0.00524 μM, Day 21): 109.0% | RT activity % VC (Treatment B, 0.01638 μM, Day 7): 9.6% | RT activity % VC (Treatment B, 0.01638 μM, Day 14): 58.0% | RT activity % VC (Treatment B, 0.01638 μM, Day 21): 133.9% | RT activity % VC (Treatment B, 0.0512 μM, Day 7): 5.4% | RT activity % VC (Treatment B, 0.0512 μM, Day 14): 28.5% | RT activity % VC (Treatment B, 0.0512 μM, Day 21): 158.0% | RT activity % VC (Treatment B, 0.16 μM, Day 7): 3.9% | RT activity % VC (Treatment B, 0.16 μM, Day 14): 25.7% | RT activity % VC (Treatment B, 0.16 μM, Day 21): 93.8% | RT activity % VC (Treatment B, 0.5 μM, Day 7): 5.4% | RT activity % VC (Treatment B, 0.5 μM, Day 14): 9.5% | RT activity % VC (Treatment B, 0.5 μM, Day 21): 87.5% | RT activity % VC (Treatment B, 5.5E-05 μM, Day 7): 90.9% | RT activity % VC (Treatment B, 5.5E-05 μM, Day 14): 97.0% | RT activity % VC (Treatment B, 5.5E-05 μM, Day 21): 163.3% | RT activity % VC (Treatment C, 0.00017 μM, Day 7): 67.5% | RT activity % VC (Treatment C, 0.00017 μM, Day 14): 92.9% | RT activity % VC (Treatment C, 0.00017 μM, Day 21): 110.1% | RT activity % VC (Treatment C, 0.00054 μM, Day 7): 73.6% | RT activity % VC (Treatment C, 0.00054 μM, Day 14): 92.3% | RT activity % VC (Treatment C, 0.00054 μM, Day 21): 106.2% | RT activity % VC (Treatment C, 0.00168 μM, Day 7): 45.4% | RT activity % VC (Treatment C, 0.00168 μM, Day 14): 125.4% | RT activity % VC (Treatment C, 0.00168 μM, Day 21): 119.1% | RT activity % VC (Treatment C, 0.00524 μM, Day 7): 28.4% | RT activity % VC (Treatment C, 0.00524 μM, Day 14): 74.6% | RT activity % VC (Treatment C, 0.00524 μM, Day 21): 104.7% | RT activity % VC (Treatment C, 0.01638 μM, Day 7): 22.1% | RT activity % VC (Treatment C, 0.01638 μM, Day 14): 62.9% | RT activity % VC (Treatment C, 0.01638 μM, Day 21): 119.2% | RT activity % VC (Treatment C, 0.0512 μM, Day 7): 17.0% | RT activity % VC (Treatment C, 0.0512 μM, Day 14): 70.5% | RT activity % VC (Treatment C, 0.0512 μM, Day 21): 89.2% | RT activity % VC (Treatment C, 0.16 μM, Day 7): 10.3% | RT activity % VC (Treatment C, 0.16 μM, Day 14): 38.1% | RT activity % VC (Treatment C, 0.16 μM, Day 21): 72.0% | RT activity % VC (Treatment C, 0.5 μM, Day 7): 8.9% | RT activity % VC (Treatment C, 0.5 μM, Day 14): 26.8% | RT activity % VC (Treatment C, 0.5 μM, Day 21): 90.1% | RT activity % VC (Treatment C, 5.5E-05 μM, Day 7): 88.6% | RT activity % VC (Treatment C, 5.5E-05 μM, Day 14): 109.2% | RT activity % VC (Treatment C, 5.5E-05 μM, Day 21): 198.4%
